Results on two molecules are retold here after patent publication US20240269139A1, “COMPOUNDS FOR TARGETED PROTEIN DEGRADATION OF KINASES” (DANA-FARBER CANCER INSTITUTE, INC., priority 2020, published 2024).

Assay type in all cases: cell-based
Assay [1] addresses protein kinases (human kinome) (Homo sapiens, UniProt P41240). The conditions noted are these: experiment wp047. From the text:
(§1) Although development of targeted protein degraders requires a POI binder, among already-liganded proteins such as kinases, it was hypothesized that different targets would have a different propensity for current approaches to degrader-mediated destruction, which was termed ‘degradability’. […] It was rationalized that the probability of identifying the same kinase as a false positive in multiple treatments is low, therefore this analysis served to also assess the robustness of our data and subsequent interpretations. […] Overall, 62 protein kinases were degraded in more than 10 independent treatments, and remarkably, 9 of these (CDK4, AURKA, FER, WEE1, BLK. LIMK2, CDK6, GAK, LIMK1) were each degraded in at least 40 of the 154 independent treatments, emphasizing their predisposition to induced degradation (FIG. 1G; Appendix I).
(§2) Next, the frequency of degradation assessment was corrected for over-representation of molecules in the full dataset by omitting replicate profiling of compounds under different experimental conditions, to remove any bias. […] Unsurprisingly, the top degradable kinases mirror those from the previous analysis (CDK4, AURKA, FER, WEE1, BLK), confirming that in sufficiently large datasets, even with over-representation of certain molecules, frequency of degradation is a good measure of general tractability.

Assay [2] addresses protein kinases (human kinome) (Homo sapiens, UniProt P51451). The conditions noted are these: for logFC of BLK: BLK P51451; for logFC of BLK (P51451): down.
Text: as §1, §2

Assay [3] deals with T1, protein kinases (human kinome) (Homo sapiens, UniProt P42680).
T1 sequence (P42680 1-631): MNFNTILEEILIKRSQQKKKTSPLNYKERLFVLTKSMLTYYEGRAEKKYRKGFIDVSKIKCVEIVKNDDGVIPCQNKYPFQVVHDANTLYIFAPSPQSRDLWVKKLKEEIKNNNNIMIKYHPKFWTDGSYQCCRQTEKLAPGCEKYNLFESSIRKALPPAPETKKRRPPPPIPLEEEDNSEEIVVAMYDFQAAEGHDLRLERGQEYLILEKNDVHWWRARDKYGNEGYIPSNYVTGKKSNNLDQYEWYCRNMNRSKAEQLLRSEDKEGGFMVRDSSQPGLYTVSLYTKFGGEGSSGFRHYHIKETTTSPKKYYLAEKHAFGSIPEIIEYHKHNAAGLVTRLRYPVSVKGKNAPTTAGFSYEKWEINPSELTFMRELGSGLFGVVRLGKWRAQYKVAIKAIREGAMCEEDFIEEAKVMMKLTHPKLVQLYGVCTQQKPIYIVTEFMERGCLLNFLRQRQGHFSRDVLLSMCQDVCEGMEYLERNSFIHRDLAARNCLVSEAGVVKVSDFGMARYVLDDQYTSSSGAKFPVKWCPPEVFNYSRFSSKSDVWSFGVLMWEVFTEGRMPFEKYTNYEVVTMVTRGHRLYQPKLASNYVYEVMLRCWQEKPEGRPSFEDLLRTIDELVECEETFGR
The conditions noted are these: TEC (P42680), experiment wp047.
Text: as §1, §2

The test system of assay [4] is protein kinases (human kinome). The conditions noted are these: for logFC LCK: accession P06239-3; for logFC LCK / logFC LCK (P06239-3): direction of change down; for logFC: degrader vs DMSO, down.
Text: as §1, §2

Assay [5] deals with protein kinases (human kinome) (Homo sapiens, UniProt P30291). The conditions noted are these: experiment wp016.
Text: as §1, §2

For assay [6], the target named is protein kinases (human kinome) (Homo sapiens, UniProt Q00534).
Text: as §1, §2

The target in assay [7] is protein kinases (human kinome) (Homo sapiens, UniProt Q00537). The conditions noted are these: experiment wp016.
Text: as §1, §2

Assay [8] has as its target T2, protein kinases (human kinome) (Homo sapiens, UniProt Q08881).
T2 sequence (Q08881 1-620): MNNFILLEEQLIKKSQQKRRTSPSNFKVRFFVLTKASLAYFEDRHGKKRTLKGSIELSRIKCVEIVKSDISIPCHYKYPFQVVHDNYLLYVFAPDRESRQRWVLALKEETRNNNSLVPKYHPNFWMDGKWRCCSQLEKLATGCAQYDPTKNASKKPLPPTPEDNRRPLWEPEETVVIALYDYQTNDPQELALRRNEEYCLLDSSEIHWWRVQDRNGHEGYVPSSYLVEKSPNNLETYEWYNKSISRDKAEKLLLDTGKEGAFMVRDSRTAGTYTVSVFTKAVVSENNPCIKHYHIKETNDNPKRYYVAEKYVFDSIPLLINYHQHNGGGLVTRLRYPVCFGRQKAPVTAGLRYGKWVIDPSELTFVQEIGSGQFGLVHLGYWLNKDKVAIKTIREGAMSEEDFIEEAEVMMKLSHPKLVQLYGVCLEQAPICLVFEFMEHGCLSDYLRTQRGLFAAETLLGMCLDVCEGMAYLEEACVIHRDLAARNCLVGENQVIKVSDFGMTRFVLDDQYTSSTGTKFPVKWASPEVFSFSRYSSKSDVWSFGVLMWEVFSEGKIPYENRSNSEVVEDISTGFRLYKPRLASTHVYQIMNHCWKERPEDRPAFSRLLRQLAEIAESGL
The conditions noted are these: experiment wp016.
Text: as §1, §2

The target of assay [9] is T3, protein kinases (human kinome) (Homo sapiens, UniProt O14965).
T3 sequence (O14965 1-403): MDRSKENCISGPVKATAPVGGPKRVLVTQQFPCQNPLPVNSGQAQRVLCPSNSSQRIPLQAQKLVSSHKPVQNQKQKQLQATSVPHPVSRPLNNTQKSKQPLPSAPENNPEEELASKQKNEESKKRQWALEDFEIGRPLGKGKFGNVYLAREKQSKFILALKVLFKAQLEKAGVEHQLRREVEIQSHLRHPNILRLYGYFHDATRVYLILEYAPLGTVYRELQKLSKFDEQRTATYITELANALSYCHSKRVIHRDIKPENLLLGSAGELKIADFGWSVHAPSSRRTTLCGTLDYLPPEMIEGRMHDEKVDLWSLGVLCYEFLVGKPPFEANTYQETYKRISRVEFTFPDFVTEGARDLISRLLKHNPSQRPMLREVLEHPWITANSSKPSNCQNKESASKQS
The conditions noted are these: experiment wp016.
Text: as §1, §2

Assay [10] has as its target protein kinases (human kinome) (Homo sapiens, UniProt P50613).
Text: as §1, §2

Assay [11] concerns the target protein kinases (human kinome) (Homo sapiens, UniProt Q2M2I8). The conditions noted are these: experiment wp016.
Text: as §1, §2

In assay [12] the target is protein kinases (human kinome) (Homo sapiens, UniProt Q00535). The conditions noted are these: experiment wp016.
Text: as §1, §2

Assay [13] addresses protein kinases (human kinome) (Homo sapiens, UniProt P53671). The conditions noted are these: experiment wp016.
Text: as §1, §2

Assay [14] has as its target protein kinases (human kinome) (Homo sapiens, UniProt P11802). The conditions noted are these: experiment wp016.
Text: as §1, §2

Assay [15] has as its target protein kinases (human kinome) (Homo sapiens, UniProt Q9NYV4). The conditions noted are these: experiment wp016.
Text: as §1, §2

Assay [16] has as its target protein kinases (human kinome) (Homo sapiens, UniProt P16591).
Text: as §1, §2

Assay [17] concerns the target protein kinases (human kinome) (Homo sapiens, UniProt O94804). The conditions noted are these: STK10 (O94804), experiment wp016.
Text: as §1, §2

Assay [18] concerns the target protein kinases (human kinome) (Homo sapiens, UniProt P24941). The conditions noted are these: experiment wp016.
Text: as §1, §2

Assay [19] concerns the target protein kinases (human kinome) (Homo sapiens, UniProt Q14289).
Text: as §1, §2

Molecules are shown by their SMILES. Read-outs that look alike come from different tables or passages of the source.

Chain of protein kinases (human kinome) (Homo sapiens, UniProt P51451) (P51451 whole entry): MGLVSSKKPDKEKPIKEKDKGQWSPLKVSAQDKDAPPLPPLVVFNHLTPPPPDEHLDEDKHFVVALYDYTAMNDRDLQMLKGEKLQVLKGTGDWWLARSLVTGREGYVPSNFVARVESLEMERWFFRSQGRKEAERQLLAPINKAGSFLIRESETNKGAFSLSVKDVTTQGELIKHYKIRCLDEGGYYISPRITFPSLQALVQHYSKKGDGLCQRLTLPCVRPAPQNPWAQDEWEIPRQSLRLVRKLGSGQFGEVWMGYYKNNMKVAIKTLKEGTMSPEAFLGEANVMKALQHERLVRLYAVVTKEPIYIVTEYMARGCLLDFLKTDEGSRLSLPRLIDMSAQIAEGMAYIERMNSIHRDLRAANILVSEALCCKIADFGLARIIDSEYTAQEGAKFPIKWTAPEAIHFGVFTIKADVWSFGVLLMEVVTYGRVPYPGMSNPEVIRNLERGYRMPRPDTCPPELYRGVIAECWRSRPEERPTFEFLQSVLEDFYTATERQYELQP
Chain of protein kinases (human kinome) (Homo sapiens, UniProt P30291) (P30291 whole entry): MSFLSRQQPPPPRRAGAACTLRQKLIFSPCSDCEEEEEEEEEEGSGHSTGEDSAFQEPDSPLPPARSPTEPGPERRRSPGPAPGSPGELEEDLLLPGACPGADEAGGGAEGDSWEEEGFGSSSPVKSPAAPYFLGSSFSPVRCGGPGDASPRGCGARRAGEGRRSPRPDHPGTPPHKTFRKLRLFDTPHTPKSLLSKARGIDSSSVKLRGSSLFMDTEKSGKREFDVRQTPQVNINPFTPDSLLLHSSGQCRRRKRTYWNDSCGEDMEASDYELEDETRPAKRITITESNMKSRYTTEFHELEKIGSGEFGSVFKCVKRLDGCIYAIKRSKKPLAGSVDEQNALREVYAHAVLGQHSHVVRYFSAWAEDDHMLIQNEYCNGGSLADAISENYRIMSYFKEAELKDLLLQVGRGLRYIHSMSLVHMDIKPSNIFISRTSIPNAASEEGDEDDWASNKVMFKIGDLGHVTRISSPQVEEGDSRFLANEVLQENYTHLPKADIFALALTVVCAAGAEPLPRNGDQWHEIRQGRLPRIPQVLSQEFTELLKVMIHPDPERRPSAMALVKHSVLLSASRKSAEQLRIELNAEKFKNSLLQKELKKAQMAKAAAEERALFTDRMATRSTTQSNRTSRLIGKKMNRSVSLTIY
Chain of protein kinases (human kinome) (Homo sapiens, UniProt P41240) (P41240 whole entry): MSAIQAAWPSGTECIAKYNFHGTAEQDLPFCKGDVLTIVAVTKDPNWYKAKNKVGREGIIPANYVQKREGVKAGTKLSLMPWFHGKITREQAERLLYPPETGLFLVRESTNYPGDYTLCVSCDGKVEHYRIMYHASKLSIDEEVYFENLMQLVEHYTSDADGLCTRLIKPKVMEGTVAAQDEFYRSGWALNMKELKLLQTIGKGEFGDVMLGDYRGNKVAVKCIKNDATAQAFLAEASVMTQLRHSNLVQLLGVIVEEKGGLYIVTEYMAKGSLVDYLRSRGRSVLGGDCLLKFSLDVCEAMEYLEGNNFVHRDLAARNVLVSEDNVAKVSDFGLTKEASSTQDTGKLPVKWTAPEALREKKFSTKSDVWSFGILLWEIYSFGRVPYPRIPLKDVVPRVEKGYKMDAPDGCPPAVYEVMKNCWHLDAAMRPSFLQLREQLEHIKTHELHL
Chain of protein kinases (human kinome) (Homo sapiens, UniProt Q00537) (Q00537 whole entry): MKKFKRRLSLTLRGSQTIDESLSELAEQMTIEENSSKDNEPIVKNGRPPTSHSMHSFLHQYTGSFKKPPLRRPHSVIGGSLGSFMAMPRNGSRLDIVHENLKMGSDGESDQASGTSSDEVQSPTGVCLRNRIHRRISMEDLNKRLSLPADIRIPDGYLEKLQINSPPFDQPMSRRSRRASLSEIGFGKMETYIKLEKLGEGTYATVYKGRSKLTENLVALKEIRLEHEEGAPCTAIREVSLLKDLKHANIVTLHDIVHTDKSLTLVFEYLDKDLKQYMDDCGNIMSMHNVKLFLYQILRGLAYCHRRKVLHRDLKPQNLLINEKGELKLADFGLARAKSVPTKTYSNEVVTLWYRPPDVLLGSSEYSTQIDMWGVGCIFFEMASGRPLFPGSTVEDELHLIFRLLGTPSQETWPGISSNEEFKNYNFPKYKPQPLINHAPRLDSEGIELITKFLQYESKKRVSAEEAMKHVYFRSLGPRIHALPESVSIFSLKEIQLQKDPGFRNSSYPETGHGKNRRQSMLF
Chain of protein kinases (human kinome) (Homo sapiens, UniProt Q2M2I8) (Q2M2I8 whole entry): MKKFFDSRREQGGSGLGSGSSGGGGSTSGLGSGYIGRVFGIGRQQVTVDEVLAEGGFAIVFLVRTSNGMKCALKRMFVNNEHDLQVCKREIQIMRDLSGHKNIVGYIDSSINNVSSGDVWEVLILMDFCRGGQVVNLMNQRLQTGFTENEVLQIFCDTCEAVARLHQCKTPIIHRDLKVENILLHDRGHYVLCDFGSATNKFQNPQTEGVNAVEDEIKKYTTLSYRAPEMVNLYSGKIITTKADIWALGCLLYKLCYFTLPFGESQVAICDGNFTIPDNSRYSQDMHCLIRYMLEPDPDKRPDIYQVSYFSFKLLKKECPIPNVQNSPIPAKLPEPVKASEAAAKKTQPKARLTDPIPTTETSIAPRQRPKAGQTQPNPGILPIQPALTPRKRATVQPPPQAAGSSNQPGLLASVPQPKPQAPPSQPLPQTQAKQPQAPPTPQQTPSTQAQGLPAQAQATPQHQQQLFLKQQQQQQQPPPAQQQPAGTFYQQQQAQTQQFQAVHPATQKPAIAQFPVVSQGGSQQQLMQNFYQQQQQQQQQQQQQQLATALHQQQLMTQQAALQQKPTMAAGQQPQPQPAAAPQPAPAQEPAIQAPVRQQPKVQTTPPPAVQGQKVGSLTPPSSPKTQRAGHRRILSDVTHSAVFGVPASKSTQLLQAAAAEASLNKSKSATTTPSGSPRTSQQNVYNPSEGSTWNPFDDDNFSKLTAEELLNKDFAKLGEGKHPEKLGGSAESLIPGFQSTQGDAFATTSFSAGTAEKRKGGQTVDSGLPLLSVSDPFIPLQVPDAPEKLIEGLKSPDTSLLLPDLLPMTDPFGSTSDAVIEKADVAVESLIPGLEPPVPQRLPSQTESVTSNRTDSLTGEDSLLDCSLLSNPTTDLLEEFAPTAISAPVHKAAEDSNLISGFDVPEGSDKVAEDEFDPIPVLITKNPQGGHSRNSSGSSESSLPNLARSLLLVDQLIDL
Chain of protein kinases (human kinome) (Homo sapiens, UniProt Q14289) (Q14289 whole entry): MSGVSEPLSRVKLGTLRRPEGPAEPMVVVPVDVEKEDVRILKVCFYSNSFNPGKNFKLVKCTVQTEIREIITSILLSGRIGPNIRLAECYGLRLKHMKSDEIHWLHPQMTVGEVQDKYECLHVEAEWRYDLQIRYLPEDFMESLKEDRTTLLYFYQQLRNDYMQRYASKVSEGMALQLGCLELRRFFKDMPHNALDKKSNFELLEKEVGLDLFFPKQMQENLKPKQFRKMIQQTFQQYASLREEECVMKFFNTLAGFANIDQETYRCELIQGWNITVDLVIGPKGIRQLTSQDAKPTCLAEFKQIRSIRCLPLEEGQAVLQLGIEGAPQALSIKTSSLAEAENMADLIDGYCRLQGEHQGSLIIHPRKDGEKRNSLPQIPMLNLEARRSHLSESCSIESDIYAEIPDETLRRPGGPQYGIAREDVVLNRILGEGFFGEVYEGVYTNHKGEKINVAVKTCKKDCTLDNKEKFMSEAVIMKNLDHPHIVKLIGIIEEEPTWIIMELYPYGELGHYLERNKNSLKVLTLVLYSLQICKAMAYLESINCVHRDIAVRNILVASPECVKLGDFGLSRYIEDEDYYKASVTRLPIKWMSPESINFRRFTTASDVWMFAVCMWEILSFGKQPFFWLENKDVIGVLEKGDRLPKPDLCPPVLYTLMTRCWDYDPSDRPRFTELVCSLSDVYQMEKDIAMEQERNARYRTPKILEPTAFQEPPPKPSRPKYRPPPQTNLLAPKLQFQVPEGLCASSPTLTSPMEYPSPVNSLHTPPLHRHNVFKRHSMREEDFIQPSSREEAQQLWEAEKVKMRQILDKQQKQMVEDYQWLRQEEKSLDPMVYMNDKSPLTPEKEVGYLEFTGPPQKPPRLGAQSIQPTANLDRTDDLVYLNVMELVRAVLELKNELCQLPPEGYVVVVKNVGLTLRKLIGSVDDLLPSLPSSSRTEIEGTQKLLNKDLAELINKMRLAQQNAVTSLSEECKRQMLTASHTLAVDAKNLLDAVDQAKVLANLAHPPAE
Chain of protein kinases (human kinome) (Homo sapiens, UniProt P11802) (P11802 whole entry): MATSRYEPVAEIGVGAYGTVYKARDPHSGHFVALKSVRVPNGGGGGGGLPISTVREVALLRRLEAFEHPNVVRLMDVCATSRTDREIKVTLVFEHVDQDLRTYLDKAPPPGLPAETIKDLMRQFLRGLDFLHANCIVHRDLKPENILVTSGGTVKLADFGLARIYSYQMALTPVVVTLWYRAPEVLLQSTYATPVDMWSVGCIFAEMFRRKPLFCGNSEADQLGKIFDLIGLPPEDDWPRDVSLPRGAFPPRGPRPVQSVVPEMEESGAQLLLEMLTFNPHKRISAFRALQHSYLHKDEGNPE
Chain of protein kinases (human kinome) (Homo sapiens, UniProt Q00534) (Q00534 whole entry): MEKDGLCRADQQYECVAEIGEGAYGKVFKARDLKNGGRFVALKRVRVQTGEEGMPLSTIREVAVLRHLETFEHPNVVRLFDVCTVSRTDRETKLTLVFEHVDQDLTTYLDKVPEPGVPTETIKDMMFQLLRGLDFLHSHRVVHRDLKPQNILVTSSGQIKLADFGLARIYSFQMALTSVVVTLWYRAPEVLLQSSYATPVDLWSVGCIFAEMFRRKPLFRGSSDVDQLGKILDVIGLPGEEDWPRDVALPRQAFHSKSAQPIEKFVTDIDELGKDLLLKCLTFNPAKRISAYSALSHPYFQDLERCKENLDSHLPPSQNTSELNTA
Chain of protein kinases (human kinome) (Homo sapiens, UniProt Q00535) (Q00535 whole entry): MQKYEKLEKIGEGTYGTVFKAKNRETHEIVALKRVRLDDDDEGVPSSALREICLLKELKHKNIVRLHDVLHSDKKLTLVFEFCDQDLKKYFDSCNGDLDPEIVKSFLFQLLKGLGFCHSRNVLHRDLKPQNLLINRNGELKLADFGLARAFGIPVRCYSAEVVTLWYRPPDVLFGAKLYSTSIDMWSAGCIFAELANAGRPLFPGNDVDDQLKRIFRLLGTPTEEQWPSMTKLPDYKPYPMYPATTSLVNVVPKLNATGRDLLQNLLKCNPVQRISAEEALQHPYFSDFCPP

Regarding `Nc1ncnc2c1c(-c1ccc(Oc3ccccc3)cc1)nn2[C@@H]1CCCN(C(=O)CCCN2CCN(CCNC(=O)CCOCCOCCNc3cccc4c3C(=O)N(C3CCC(=O)NC3=O)C4=O)CC2)C1` (some centres unmarked) [DD.03.119], the “logFC of CSK” value in [1] (Accession P41240) is reported as −1.786. Moreover, the “logFC CSK” value in assay [1] (CSK (P41240), down) is given as −1.786. Further, the “logFC of BLK” value in [2] (experiment wp047) is given as −1.859. In addition, the “logFC of BLK (P51451)” value in [2] (Experiment wp047) is listed as −1.859. Moreover, the results for the logFC in assay [3], in assay [3] (direction down) and in [4] (SRC (P12931-2) protein abundance) were −2.272, −2.272 and −0.6128, respectively. Moreover, the “logFC FYN” value in [4] (Accession P06241-2, experiment wp047) is −0.8669; in assay [4] (FYN P06241-2, experiment wp047), −0.8669. In addition, in assay [4] (Accession P12931-2, experiment wp047), the “logFC of SRC” value was −0.6128. For the same molecule, the “logFC LCK” value in assay [4] (experiment wp047) was −1.787. Also, in [4] (experiment wp047), the “logFC ABL2 (P42684-5)” value was −1.047. For the same molecule, the “logFC of ABL2 (P42684-5)” value in assay [4] (experiment wp047) is on record as −1.047. Further, the “logFC LCK (P06239-3)” value in [4] (experiment wp047) is −1.787.

Regarding `CC(C)S(=O)(=O)c1ccccc1Nc1nc(Nc2ccc(N3CCN(CCOCCOCCOCCNC(=O)CNc4ccc5c(c4)C(=O)N(C4CCC(=O)NC4=O)C5=O)CC3)cc2)ncc1Cl` (centres unmarked) [SK.3.89], in [5], the “logFC WEE1 (P30291-1)” value is −1.017. Also, the “logFC of BLK” value in assay [2] (experiment wp016) is recorded as −1.335. Further, the “logFC of BLK (P51451)” value in [2] (Experiment wp016) is −1.335. For the same molecule, the “logFC CDK6” value in assay [6] (CDK6 (Q00534), direction down, experiment wp016) was −0.3396. In assay [6] (Experiment wp016, down), the “logFC of CDK6 (Q00534)” value is reported as −0.3396. Besides, in assay [7] (Accession Q00537), the “logFC of CDK17” value is −0.6057. The “logFC CDK17 (Q00537)” value in assay [7] (direction of change down) is −0.6057. Besides, the “logFC ITK (Q08881)” value in assay [8] and in assay [8] (direction of change down) was −2.044 throughout. In addition, in [9], the “logFC AURKA (O14965)” value is recorded as −1.672. Besides, the logFC in [10] (CDK7 (P50613) protein abundance, degrader vs DMSO, down) is given as −0.7959; in [4] (CDK9 (P50750-2) protein abundance) it was −0.4777; in assay [17] it was −0.3539; in [17] (direction down) it was −0.3539; in assay [19] (PTK2B (Q14289-1) protein abundance, degrader vs DMSO, down) it was −3.554. In assay [10] (CDK7 P50613, experiment wp016), the “logFC CDK7” value is recorded as −0.7959. Moreover, the “logFC AAK1” value is −1.219 in assay [11] (AAK1 (Q2M218-1), down) and −1.219 in assay [11] (AAK1, accession Q2M218-1, direction of change down). In addition, in assay [12] (Accession Q00535), the “logFC of CDK5” value is listed as −0.6254. Further, in [12] (direction of change down), the “logFC CDK5 (Q00535)” value is given as −0.6254. The “logFC LIMK2” value in [13] (LIMK2 (P53671), down) is −0.444. For the same molecule, in assay [13] (LIMK2 P53671), the “logFC of LIMK2” value was −0.444. Moreover, in [4] (experiment wp016), the “logFC LCK” value was −0.449. For the same molecule, the “logFC CDK9 (P50750-2)” value in assay [4] (experiment wp016) is given as −0.4777. For the same molecule, the “logFC LCK (P06239-3)” value in assay [4] (experiment wp016) is listed as −0.449. Besides, the “logFC CDK4 (P11802)” value in [14] was −0.5177. For the same molecule, the “logFC CDK12” value in [15] (Accession Q9NYV4-1) and in [15] (CDK12 (Q9NYV4-1)) was −0.5237 in each case. In addition, the “logFC of FER (P16591-1)” value in [16] (Experiment wp016, down) is reported as −2.262. In addition, in assay [16] (FER P16591-1, experiment wp016), the “logFC of FER” value was −2.262. Moreover, the “logFC CDK2 (P24941-1)” value in assay [18] and in [18] (direction of change down) was −0.5953 in each case. Further, in [19] (PTK2B, accession Q14289-1, experiment wp016, direction of change down), the “logFC PTK2B” value was −3.554.
